From patent US10219513B2, “Safening 4-amino-3-chloro-6-(4-chloro-2-fluoro-3-methoxyphenyl)-5-fluoropyridine-2-carboxylic acid compositions in Brassica species and methods of use thereof” (Dow AgroSciences LLC, priority 2016, dated 2019)
Several values for one entry are separate records, joined by “and”; a condition that tells them apart may be missing. Equal entries are not always repeated.

Experiments:
[1] = tested on: Brassica napus var. napobrassica (rutabaga, BRSNA); test: Greenhouse postemergence application, visual injury after 20-22 d, BRSNA
Procedure: (§1) Seeds of the desired test plant species were planted in Sun Gro MetroMix® 306 planting mixture, which typically has a pH of 6.0 to 6.8 and an organic matter content of about 30 percent, in plastic pots with a surface area of 103.2 square centimeters (cm^2). […] The plants were grown for 7-36 days (d) in a greenhouse with an approximate 14-hour (h) photoperiod which was maintained at about 23° C. during the day and 22° C. during the night. Nutrients and water were added on a regular basis and supplemental lighting was provided with overhead metal halide 1000-Watt lamps as necessary. The plants were employed for testing when they reached the second or third true leaf stage.
(§2) An aliquot of formulated benzyl 4-amino-3-chloro-6-(4-chloro-2-fluoro-3-methoxyphenyl)-5-fluoropyridine-2-carboxylate (florpyrauxifen-benzyl; 300 grams active ingredient per liter (g ai/L) suspension concentrate (SC)) was placed in a 25 mL glass vial and diluted in a volume of 1.25% (v/v) aqueous Agri-dex crop oil concentrated to obtain a stock solution. […] The concentrated stock solutions were diluted with an aqueous mixture of 1.25% v/v of aqueous Agri-dex crop oil concentrate to provide the appropriate application rates. Compound requirements are based upon a 12 milliliter (mL) application volume at a rate of 187 liters per hectare (L/ha). Stock solutions of the formulated materials were prepared following the same procedure. Spray solutions of the compound mixtures were prepared by adding the stock solutions to the appropriate amount of dilution solution to form a 12 mL spray solution. Formulated compounds were applied to the plant material with an overhead Mandel track sprayer equipped with 8002E nozzles calibrated to deliver 187 L/ha over an application area of 0.503 square meters (m^2) at a spray height of 18 inches (43 centimeters (cm)) above average plant canopy. Control plants were sprayed in the same manner with the solvent blank.
(§3) The treated plants and control plants were placed in a greenhouse as described above and watered by sub-irrigation to prevent wash-off of the test compounds. After 20-22 d, the condition of the test plants as compared with that of the control plants was determined visually and scored on a scale of 0 to 100 percent where 0 corresponds to no injury and 100 corresponds to complete kill. Colby's equation was used to determine the herbicidal effects expected from the mixtures.
(§4) Benzyl 4-amino-3-chloro-6-(4-chloro-2-fluoro-3-methoxyphenyl)-5-fluoropyridine-2-carboxylate (florpyrauxifen-benzyl, 300 g ai/L SC) was combined in two-, three-, and four-way mixtures with one or more of the following: clopyralid-olamine (as Lontrel™ 35A Herbicidal Concentrate), quinclorac (as Facet 75DF), isoxadifen-ethyl (100 g/L SC), cloquintocet-mexyl (120 g/L EC) or mefenpyr-diethyl (as mefenpyr-diethyl 15WP). The mixtures were applied to kale/Chinese kale (Brassica alboglabra, BRSAG), Juncea canola or brown mustard (Brassica juncea, BRSJU), rutabaga (Brassica napus var. napobrassica, BRSNA), all varieties of canola and oilseed rape (Brassica napus, BRSNN), Nexera™ canola (Brassica napus, BRSNN-NEX), winter oilseed rape (Brassica napus, BRSNW), Roundup Ready® canola (Brassica napus, RR-BRSNN), and turnip or Polish canola (Brassica rapa, BRSRR), and the phytotoxicity of the compositions was measured.
(§5) Colby's equation was used to determine the herbicidal effects expected from the mixtures evaluated in the described trials (Colby, S. R. Calculation of the synergistic and antagonistic response of herbicide combinations. Weeds 1967, 15, 20-22.).
(§6) The following equation was used to calculate the expected activity of mixtures containing two active ingredients, A and B: Expected=A+B−(A×B/100) • A=observed efficacy of active ingredient A at the same concentration as used in the mixture; • B=observed efficacy of active ingredient B at the same concentration as used in the mixture.

[2] = tested on: Brassica napus (Nexera canola, BRSNN-NEX); test: Greenhouse postemergence application, visual injury after 20-22 d, BRSNN-NEX
Procedure: as §1, §2, §3, §4, §5, §6

[3] = tested on: Brassica rapa (turnip or Polish canola, BRSRR); test: Greenhouse postemergence application, visual injury after 20-22 d, BRSRR
Procedure: as §1, §2, §3, §4, §5, §6

[4] = isoxadifen-ethyl 5 g ai/ha alone
[5] = isoxadifen-ethyl 10 g ai/ha alone
[6] = isoxadifen-ethyl 20 g ai/ha alone
[7] = isoxadifen-ethyl 40 g ai/ha alone
[8] = postemergence application, greenhouse, application rate (g ai/ha) varies
[9] = florpyrauxifen-benzyl 2.5 g ai/ha alone
[10] = florpyrauxifen-benzyl 5 g ai/ha alone
[11] = florpyrauxifen-benzyl 10 g ai/ha alone
[12] = florpyrauxifen-benzyl alone 2.5 g ai/ha
[13] = florpyrauxifen-benzyl alone 5 g ai/ha
[14] = florpyrauxifen-benzyl alone 10 g ai/ha

Structure (SMILES): CCOC(=O)C1=NOC(c2ccccc2)(c2ccccc2)C1 [Isoxadifen-ethyl, ethyl 4,5-dihydro-5,5-diphenyl-1,2-oxazole-3-carboxyalte]
- % Visual Injury Obs ([1]; BRSNA, 5 g ai/ha): 0%
- % Visual Injury Obs ([1]; BRSNA, 10 g ai/ha): 0%
- % Visual Injury Obs ([1]; BRSNA, 20 g ai/ha): 0%
- % Visual Injury Obs ([1]; BRSNA, 40 g ai/ha): 0%
- Obs % visual injury ([1]; BRSNA, partner alone 5 g ai/ha): 0%
- Obs % visual injury ([1]; BRSNA, partner alone 10 g ai/ha): 0%
- Obs % visual injury ([1]; BRSNA, partner alone 20 g ai/ha): 0%
- Obs % visual injury ([1]; BRSNA, partner alone 40 g ai/ha): 0%
- % Visual Injury Obs [1, 4]: 0%
- % Visual Injury Obs [1, 5]: 0%
- % Visual Injury Obs [1, 6]: 0%
- % Visual Injury Obs [1, 7]: 0%
- % Visual Injury BRSNA Obs [1, 8]: 0%
- % Visual Injury Obs ([2]; BRSNN-NEX, 5 g ai/ha): 0%
- % Visual Injury Obs ([2]; BRSNN-NEX, 10 g ai/ha): 0%
- % Visual Injury Obs ([2]; BRSNN-NEX, 20 g ai/ha): 0%
- % Visual Injury Obs ([2]; BRSNN-NEX, 40 g ai/ha): 0%
- Obs % visual injury ([2]; BRSNN-NEX, partner alone 5 g ai/ha): 0%
- Obs % visual injury ([2]; BRSNN-NEX, partner alone 10 g ai/ha): 0%
- Obs % visual injury ([2]; BRSNN-NEX, partner alone 20 g ai/ha): 0%
- Obs % visual injury ([2]; BRSNN-NEX, partner alone 40 g ai/ha): 0%
- % Visual Injury Obs [2, 4]: 0%
- % Visual Injury Obs [2, 5]: 0%
- % Visual Injury Obs [2, 6]: 0%
- % Visual Injury Obs [2, 7]: 0%
- % Visual Injury BRSNN-NEX Obs [2, 8]: 0%
- % Visual Injury Obs ([3]; BRSRR, 5 g ai/ha): 0%
- % Visual Injury Obs ([3]; BRSRR, 10 g ai/ha): 0%
- % Visual Injury Obs ([3]; BRSRR, 20 g ai/ha): 0%
- % Visual Injury Obs ([3]; BRSRR, 40 g ai/ha): 0%
- Obs % visual injury ([3]; BRSRR, partner alone 5 g ai/ha): 0%
- Obs % visual injury ([3]; BRSRR, partner alone 10 g ai/ha): 0%
- Obs % visual injury ([3]; BRSRR, partner alone 20 g ai/ha): 0%
- Obs % visual injury ([3]; BRSRR, partner alone 40 g ai/ha): 0%
- % Visual Injury Obs [3, 4]: 0%
- % Visual Injury Obs [3, 5]: 0%
- % Visual Injury Obs [3, 6]: 0%
- % Visual Injury Obs [3, 7]: 0%
- % Visual Injury BRSRR Obs [3, 8]: 0%

Structure (SMILES): COc1c(Cl)ccc(-c2nc(C(=O)OCc3ccccc3)c(Cl)c(N)c2F)c1F [Florpyrauxifen-benzyl, benzyl 4-amino-3-chloro-6-(4-chloro-2-fluoro-3-methoxyphenyl)-5-fluoropyridine-2-carboxylate]
- % Visual Injury Obs ([1]; BRSNA, 2.5 g ai/ha): 4%
- % Visual Injury Obs ([1]; BRSNA, 5 g ai/ha): 4%
- % Visual Injury Obs ([1]; BRSNA, 10 g ai/ha): 13%
- Obs % visual injury ([1]; BRSNA, florpyrauxifen-benzyl alone 2.5 g ai/ha): 4%
- Obs % visual injury ([1]; BRSNA, florpyrauxifen-benzyl alone 5 g ai/ha): 4%
- Obs % visual injury ([1]; BRSNA, florpyrauxifen-benzyl alone 10 g ai/ha): 13%
- % Visual Injury BRSNA Obs [1, 9]: 4%
- % Visual Injury Obs [1, 9]: 4%
- % Visual Injury BRSNA Obs [1, 10]: 4%
- % Visual Injury Obs [1, 10]: 4%
- % Visual Injury BRSNA Obs [1, 11]: 13%
- % Visual Injury Obs [1, 11]: 13%
- Obs % visual injury BRSNA [1, 12]: 4%
- Obs % visual injury BRSNA [1, 13]: 4%
- Obs % visual injury BRSNA [1, 14]: 13%
- % Visual Injury BRSNA Obs [1, 8]: 4% and 13%
- % Visual Injury Obs ([2]; BRSNN-NEX, 2.5 g ai/ha): 7%
- % Visual Injury Obs ([2]; BRSNN-NEX, 5 g ai/ha): 12%
- % Visual Injury Obs ([2]; BRSNN-NEX, 10 g ai/ha): 19%
- Obs % visual injury ([2]; BRSNN-NEX, florpyrauxifen-benzyl alone 2.5 g ai/ha): 7%
- Obs % visual injury ([2]; BRSNN-NEX, florpyrauxifen-benzyl alone 5 g ai/ha): 12%
- Obs % visual injury ([2]; BRSNN-NEX, florpyrauxifen-benzyl alone 10 g ai/ha): 19%
- % Visual Injury BRSNN-NEX Obs [2, 9]: 7%
- % Visual Injury Obs [2, 9]: 7%
- % Visual Injury BRSNN-NEX Obs [2, 10]: 12%
- % Visual Injury Obs [2, 10]: 12%
- % Visual Injury BRSNN-NEX Obs [2, 11]: 19%
- % Visual Injury Obs [2, 11]: 19%
- Obs % visual injury BRSNN-NEX [2, 12]: 7%
- Obs % visual injury BRSNN-NEX [2, 13]: 12%
- Obs % visual injury BRSNN-NEX [2, 14]: 19%
- % Visual Injury Obs ([3]; BRSRR, 2.5 g ai/ha): 6%
- % Visual Injury Obs ([3]; BRSRR, 5 g ai/ha): 9%
- % Visual Injury Obs ([3]; BRSRR, 10 g ai/ha): 14%
- Obs % visual injury ([3]; BRSRR, florpyrauxifen-benzyl alone 2.5 g ai/ha): 6%
- Obs % visual injury ([3]; BRSRR, florpyrauxifen-benzyl alone 5 g ai/ha): 9%
- Obs % visual injury ([3]; BRSRR, florpyrauxifen-benzyl alone 10 g ai/ha): 14%
- % Visual Injury BRSRR Obs [3, 9]: 6%
- % Visual Injury Obs [3, 9]: 6%
- % Visual Injury BRSRR Obs [3, 10]: 9%
- % Visual Injury Obs [3, 10]: 9%
- % Visual Injury BRSRR Obs [3, 11]: 14%
- % Visual Injury Obs [3, 11]: 14%
- Obs % visual injury BRSRR [3, 12]: 6%
- Obs % visual injury BRSRR [3, 13]: 9%
- Obs % visual injury BRSRR [3, 14]: 14%
- % Visual Injury BRSRR Obs [3, 8]: 6% and 9% and 14%

Structure (SMILES): O=C(O)c1c(Cl)ccc2cc(Cl)cnc12 [Quinclorac, 3,7-dichloro-8-quinolinecarboxylic acid]
- % Visual Injury Obs ([1]; BRSNA, 50 g ai/ha): 0%
- % Visual Injury Obs ([1]; BRSNA, 100 g ai/ha): 0%
- % Visual Injury Obs ([1]; BRSNA, 200 g ai/ha): 0%
- Obs % visual injury ([1]; BRSNA, partner alone 50 g ai/ha): 0%
- Obs % visual injury ([1]; BRSNA, partner alone 100 g ai/ha): 0%
- Obs % visual injury ([1]; BRSNA, partner alone 200 g ai/ha): 0%
- % Visual Injury BRSNA Obs [1, 8]: 0%
- % Visual Injury BRSNA Obs ([1]; quinclorac 50 g ai/ha alone): 0%
- % Visual Injury BRSNA Obs ([1]; quinclorac 100 g ai/ha alone): 0%
- % Visual Injury BRSNA Obs ([1]; quinclorac 200 g ai/ha alone): 0%
- % Visual Injury Obs ([2]; BRSNN-NEX, 50 g ai/ha): 0%
- % Visual Injury Obs ([2]; BRSNN-NEX, 100 g ai/ha): 0%
- % Visual Injury Obs ([2]; BRSNN-NEX, 200 g ai/ha): 0%
- Obs % visual injury ([2]; BRSNN-NEX, partner alone 50 g ai/ha): 0%
- Obs % visual injury ([2]; BRSNN-NEX, partner alone 100 g ai/ha): 0%
- Obs % visual injury ([2]; BRSNN-NEX, partner alone 200 g ai/ha): 0%
- % Visual Injury BRSNN-NEX Obs [2, 8]: 0%
- % Visual Injury BRSNN-NEX Obs ([2]; quinclorac 50 g ai/ha alone): 0%
- % Visual Injury BRSNN-NEX Obs ([2]; quinclorac 100 g ai/ha alone): 0%
- % Visual Injury BRSNN-NEX Obs ([2]; quinclorac 200 g ai/ha alone): 0%
- % Visual Injury Obs ([3]; BRSRR, 50 g ai/ha): 0%
- % Visual Injury Obs ([3]; BRSRR, 100 g ai/ha): 0%
- % Visual Injury Obs ([3]; BRSRR, 200 g ai/ha): 0%
- Obs % visual injury ([3]; BRSRR, partner alone 50 g ai/ha): 0%
- Obs % visual injury ([3]; BRSRR, partner alone 100 g ai/ha): 0%
- Obs % visual injury ([3]; BRSRR, partner alone 200 g ai/ha): 0%
- % Visual Injury BRSRR Obs [3, 8]: 0%
- % Visual Injury BRSRR Obs ([3]; quinclorac 50 g ai/ha alone): 0%
- % Visual Injury BRSRR Obs ([3]; quinclorac 100 g ai/ha alone): 0%
- % Visual Injury BRSRR Obs ([3]; quinclorac 200 g ai/ha alone): 0%
